Data as given in patent US6221866A, “Indanyl-substituted benzenecarboxamides, processes for their preparation, their use as a medicament, and pharmaceutical formulations containing them” (priority 1999, dated 2001).
pIC50: −log10 of the molar value.

Key:
[1] = tested on: Kv1.5 channel; settings: described in the literature, side effect alongside other principal effects; cited from earlier work
[2] = molecular target: T1, Human Kv1.5 channels (Homo sapiens, UniProt P22460); experiment: Inhibition of human Kv1.5 current expressed in Xenopus oocytes (two microelectrode voltage clamp); type: cell-based; settings: human Kv1.5 expressed in Xenopus oocytes; voltage jumps to 0 mV and 40 mV, 500 ms; RT; pH 7.4; Hill equation
T1 construct: expressed in transfected cells; host or cells: Xenopus laevis oocytes injected with Kv1.5-coding RNA synthesized in vitro
Description: Human Kv1.5 channels were expressed in Xenopus oocytes. For this purpose, oocytes were first isolated from Xenopus laevis and were defolliculated. Kv1.5-coding RNA synthesized in vitro was then injected into these oocytes. After Kv1.5 protein expression for 1-7 days, Kv1.5 currents were measured on the oocytes by the two microelectrode voltage clamp technique. Here, the Kv1.5 channels were activated as a rule with voltage jumps to 0 mV and 40 mV, lasting for 500 ms. The bath was flushed with a solution of the following composition: 96 mM NACl, 2 mM KCl, 1.8 mM CaCl2, 1 mM MgCl2, and 5 mM HEPES (tritrated with NaOH to pH 7.4). These experiments were carried out at RT. The following were used for data acquisition and analysis: Geneclamp amplifier (Axon Instruments, Foster City, USA) and MacLab D/A converter and software (ADinstruments, Castle Hill, Australia). The substances according to the invention were tested by adding them in different concentrations to the bath solution. The effects of the substances were calculated as percentage inhibition of the Kv1.5 control current obtained when no substance was added to the solution. The data were then extrapolated using the Hill equation, in order to determine the inhibitory concentration (IC50) for the respective substances.

[3] = tested on: fast-activating potassium channel IKr; settings: human ventricle and atrium cells; cited from earlier work

T1 sequence (P22460 whole entry): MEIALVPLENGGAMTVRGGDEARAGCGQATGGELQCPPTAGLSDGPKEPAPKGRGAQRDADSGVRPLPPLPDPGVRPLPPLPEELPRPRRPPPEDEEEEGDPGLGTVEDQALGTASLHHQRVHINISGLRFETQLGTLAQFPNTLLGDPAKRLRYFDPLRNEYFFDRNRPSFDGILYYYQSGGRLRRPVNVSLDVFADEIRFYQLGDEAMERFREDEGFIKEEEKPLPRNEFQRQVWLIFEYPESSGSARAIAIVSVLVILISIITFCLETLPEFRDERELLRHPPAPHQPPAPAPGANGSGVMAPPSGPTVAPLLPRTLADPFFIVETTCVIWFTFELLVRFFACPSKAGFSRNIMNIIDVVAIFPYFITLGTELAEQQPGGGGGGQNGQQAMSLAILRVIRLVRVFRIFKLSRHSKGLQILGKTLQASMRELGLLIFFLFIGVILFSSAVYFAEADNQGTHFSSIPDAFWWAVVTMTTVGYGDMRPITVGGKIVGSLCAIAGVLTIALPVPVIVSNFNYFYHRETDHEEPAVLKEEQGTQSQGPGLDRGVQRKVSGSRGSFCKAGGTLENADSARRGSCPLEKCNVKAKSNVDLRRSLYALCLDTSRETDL

| SMILES | pIC50 [2] | further results |
| --- | --- | --- |
| CCCCN1CCCCC1C(=O)Nc1c(C)cccc1C (centres unmarked) [Bupivacaine] | – | blocking effect on the Kv1.5 channel (in words) [1]: blocking effect on the Kv1.5 channel |
| CCCCNS(=O)(=O)c1cc(C(=O)NC2CCc3ccccc32)ccc1Cl (centres unmarked) [Example 3] | 5.11 | – |
| CC(C)CCNS(=O)(=O)c1cc(C(=O)NC2CCc3ccccc32)c(Cl)cc1Cl (centres unmarked) [Example 11] | 5.55 | – |
| CC(C)CCNS(=O)(=O)c1cc(C(=O)N[C@@H]2CCc3ccccc32)c(Cl)cc1Cl [Example 19] | ~5.52 | – |
| O=C(NC1CCc2ccccc21)c1cc(S(=O)(=O)NC2CCCCC2)c(Cl)cc1Cl (centres unmarked) [Example 13] | 5.41 | – |
| CC(C)NC[C@@H](O)c1ccc(NS(C)(=O)=O)cc1 [d-Sotalol] | – | block of IKr (in words) [3]: predominantly or exclusively block the fast-activating potassium channel IKr |
| O=C(NC1CCc2ccccc21)c1cc(S(=O)(=O)NC2CCC2)c(Cl)cc1Cl (centres unmarked) [Example 14] | 5.38 | – |
| O=C1NCCN1CCN1CCC(c2cn(-c3ccc(F)cc3)c3ccc(Cl)cc23)CC1 [Sertindole] | – | blocking effect on the Kv1.5 channel (in words) [1]: blocking effect on the Kv1.5 channel |
| NS(=O)(=O)c1cc(C(=O)NC2CCc3ccccc32)ccc1Cl (centres unmarked) [Example 1] | < 5.00 | – |
| CC(C)CNS(=O)(=O)c1cc(C(=O)NC2CCc3ccccc32)c(Cl)cc1Cl (centres unmarked) [Example 10] | 5.32 | – |
| CN(CCOc1ccc(NS(C)(=O)=O)cc1)CCc1ccc(NS(C)(=O)=O)cc1 [Dofetilide] | – | block of IKr (in words) [3]: predominantly or exclusively block the fast-activating potassium channel IKr |
| C1CCC2(C1)C1CN(CC3CC3)CC2CN(CC2CC2)C1 [Tedisamil] | – | blocking effect on the Kv1.5 channel (in words) [1]: blocking effect on the Kv1.5 channel |

Further lines, with some results ahead:

| pIC50 [2] | SMILES | further results |
| --- | --- | --- |
| 5.21 | O=C(NC1CCc2ccccc21)c1cc(S(=O)(=O)NC2CCCCC2)c(F)cc1Cl (centres unmarked) [Example 73] | – |
| 5.66 | CN(C(=O)c1cc(S(=O)(=O)NC2CCCCC2)ccc1Cl)C1CCc2ccccc21 (centres unmarked) [Example 94] | – |
| ~5.52 | CC(C)CCNS(=O)(=O)c1cc(C(=O)N[C@H]2CCc3ccccc32)c(Cl)cc1Cl [Example 20] | – |
| 5.15 | Cc1ccc(S(=O)(=O)NC2CCCCC2)cc1C(=O)NC1CCc2ccccc21 (centres unmarked) [Example 51] | – |
| 5.16 | Cc1cc(S(=O)(=O)NCCC(C)C)cc(C(=O)NC2CCc3ccccc32)c1C (centres unmarked) [Example 60] | – |
| 5.20 | O=C(NC1CCc2ccccc21)c1cc(S(=O)(=O)Nc2ccccc2)ccc1Cl (centres unmarked) [Example 62] | – |
| 5.06 | Cc1cc(C)c(S(=O)(=O)NCCC(C)C)cc1C(=O)NC1CCc2ccccc21 (centres unmarked) [Example 57] | – |
| 5.06 | COc1ccc2c(c1)C(NC(=O)c1ccc(Cl)c(S(=O)(=O)NCCC(C)C)c1)CC2 (centres unmarked) [Example 88] | – |
| 5.25 | COc1cc2c(cc1OC)C(NC(=O)c1ccc(Cl)c(S(=O)(=O)NCCC(C)C)c1)CC2 (centres unmarked) [Example 89] | – |
| 5.55 | COc1ccc(NS(=O)(=O)c2cc(C(=O)NC3CCc4ccccc43)c(Cl)cc2F)cc1 (centres unmarked) [Example 90] | – |
| 5.28 | Cc1ccc(S(=O)(=O)NCCC(C)C)cc1C(=O)NC1CCc2ccccc21 (centres unmarked) [Example 43] | – |
